# Where “and” joins values, the source holds several entries; their conditions need not be identical. Identical values can stand only once.
# Molecular target: T1, PPAR delta (Homo sapiens, UniProt Q03181)
# T1 sequence (Q03181 211-441 limits assumed): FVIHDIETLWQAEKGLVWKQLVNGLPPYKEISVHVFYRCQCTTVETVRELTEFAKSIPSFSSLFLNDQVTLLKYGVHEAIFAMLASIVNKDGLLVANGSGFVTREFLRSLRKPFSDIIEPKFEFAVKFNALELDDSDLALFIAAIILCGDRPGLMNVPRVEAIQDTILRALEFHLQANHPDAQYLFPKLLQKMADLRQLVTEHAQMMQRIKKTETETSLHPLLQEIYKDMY
# Experiment: Transfection assay for PPAR receptors (PPAR-Gal4 / Gal4-Luciferase reporter in HEK293 cells)
# Format: cell-based
# Conditions: HEK293 cells co-transfected with PPAR-Gal4 receptor and Gal4-Luciferase reporter; 24 hours; multiple values = multiple measurements; read-out: EC50 (PPAR delta)
# Procedure: Transfection Assay Method for PPAR Receptors
# HEK293 cells were grown in DMEM/F-12 Media supplemented with 10% FBS and glutamine (GIBCOBRL). The cells were co-transfected with DNA for PPAR-Gal4 (PPARα, γ or δ) receptor and Gal4-Luciferase Reporter using the DMRIE-C Reagent. On the following day, the medium was replaced with 5% Charcoal treated FBS growth medium. After six hours, cells were trypsinized and seeded at a density of 50,000 cell/well into 96 well plates and incubated overnight at 37° C. in a 5% CO2 incubator. Cells were then treated with test compounds or vehicle and incubated for 24 hours at 37° C. in a 5% CO2 incubator. Luciferase activity was assayed using the Steady-Glo Luciferase Assay Kit from Promega. […] Steady-Glo Luciferase Assay Kit was purchased from Promega Part# E254B.
row,SMILES,EC50
1,"C=C(COc1ccccc1)CSc1ccc(OCC(=O)O)c(C)c1 [Compound 3, [2-Methyl-4-(2-phenoxymethyl-allylsulfanyl)-phenoxy]-acetic acid]",0.711 µM
2,"C=C(COc1ccc(OC(F)(F)F)cc1)CSc1ccc(OCC(=O)O)c(C)c1 [Compound 4, {2-Methyl-4-[2-(4-trifluoromethoxy-phenoxymethyl)-allylsulfanyl]-phenoxy}-acetic acid]",0.029 µM and 0.0278 µM
3,"C=C(COc1ccc(Cl)cc1)CSc1ccc(OCC(=O)O)c(C)c1 [Compound 5, {4-[2-(4-Chloro-phenoxymethyl)-allylsulfanyl]-2-methyl-phenoxy}-acetic acid]",0.0792 µM and 0.0518 µM
4,"C=C(COc1ccc(Cl)c(Cl)c1)CSc1ccc(OCC(=O)O)c(C)c1 [Compound 6, {4-[2-(3,4-Dichloro-phenoxymethyl)-allylsulfanyl]-2-methyl-phenoxy}-acetic acid]",0.0566 µM and 0.0429 µM
5,"C=C(COc1ccc(Cl)cc1Cl)CSc1ccc(OCC(=O)O)c(C)c1 [Compound 7, {4-[2-(2,4-Dichloro-phenoxymethyl)-allylsulfanyl]-2-methyl-phenoxy}-acetic acid]",0.138 µM
6,"C=C(COc1ccc(OC)cc1)CSc1ccc(OCC(=O)O)c(C)c1 [Compound 9, {4-[2-(4-Methoxy-phenoxymethyl)-allylsulfanyl]-2-methyl-phenoxy}-acetic acid]",0.216 µM
7,"C=C(COc1ccc(N(C)C)cc1)CSc1ccc(OCC(=O)O)c(C)c1 [Compound 10, {4-[2-(4-Dimethylamino-phenoxymethyl)-allylsulfanyl]-2-methyl-phenoxy}-acetic acid]",0.238 µM
8,"C=C(COc1ccc(C(F)(F)F)cc1)CSc1ccc(OCC(=O)O)c(Cl)c1 [Compound 11, {2-Chloro-4-[2-(4-trifluoromethyl-phenoxymethyl)-allylsulfanyl]-phenoxy}-acetic acid]",0.0451 µM and 0.0483 µM
9,"CC(C)=C(COc1ccc(C(F)(F)F)cc1)CSc1ccc(OCC(=O)O)c(C)c1 [Compound 15, {2-Methyl-4-[3-methyl-2-(4-trifluoromethyl-phenoxymethyl)-but-2-enylsulfanyl]-phenoxy}-acetic acid]",0.0227 µM and 0.0221 µM
10,"Cc1cc(SCC(COc2ccc(C(F)(F)F)cc2)=C(F)F)ccc1OCC(=O)O [Compound 16, {4-[3,3-Difluoro-2-(4-trifluoromethyl-phenoxymethyl)-allylsulfanyl]-2-methyl-phenoxy}-acetic acid]",0.0878 µM and 0.0514 µM
11,"Cc1cc(SCC(=CC#N)COc2ccc(C(F)(F)F)cc2)ccc1OCC(=O)O [Compound 17, {4-[3-Cyano-2-(4-trifluoromethyl-phenoxymethyl)-allylsulfanyl]-2-methyl-phenoxy}-acetic acid]",0.0321 µM and 0.0387 µM

# The remaining lines, values ahead:
row,EC50,SMILES
1,0.0677 µM and 0.0497 µM,"Cc1cc(SCC(=Cc2cccc3ccccc23)COc2ccc(C(F)(F)F)cc2)ccc1OCC(=O)O [Compound 19, {2-Methyl-4-[3-naphthalen-1-yl-2-(4-trifluoromethyl-phenoxymethyl)-allylsulfanyl]-phenoxy}-acetic acid]"
2,0.194 µM,"C=C(CCSc1ccc(OCC(=O)O)c(C)c1)Oc1ccc(C(F)(F)F)cc1 [Compound 20, {2-Methyl-4-[3-(4-trifluoromethyl-phenoxy)-but-3-enylsulfanyl]phenoxy}-acetic acid]"
3,> 1 µM,"C=C(CSc1ccc(OCC(=O)O)c(C)c1)Oc1ccc(C(F)(F)F)cc1 [Compound 21, {2-Methyl-4-[2-(4-trifluoromethyl-phenoxy)-allylsulfanyl]-phenoxy}-acetic acid]"
4,0.0289 µM and 0.0683 µM,"C=C(COc1ccc(C(F)(F)F)cc1)CSc1ccc(CC(=O)O)cc1Cl [Compound 22, {3-Chloro-4-[2-(4-trifluoromethyl-phenoxymethyl)-allylsulfanyl]-phenyl}-acetic acid]"
5,0.0097 µM and 0.0074 µM,"CCCC(CCC)(COc1ccc(C(F)(F)F)cc1)CSc1ccc(OCC(=O)O)c(C)c1 [Compound 24, {2-Methyl-4-[2-propyl-2-(4-trifluoromethyl-phenoxymethyl)-pentylsulfanyl]phenoxy}-acetic acid]"
6,0.147 µM,"Cc1cc(SCC(F)(F)COc2ccc(C(F)(F)F)cc2)ccc1OCC(=O)O [Compound 25, {4-[2,2-Difluoro-3-(4-trifluoromethyl-phenoxy)-propylsulfanyl]-2-methyl-phenoxy}-acetic acid]"
7,0.119 µM,"Cc1cc(SCC2(COc3ccc(C(F)(F)F)cc3)COC(C)(C)O2)ccc1OCC(=O)O (centres unmarked) [Compound 27, {4-[2,2-Dimethyl-4-(4-trifluoromethyl-phenoxymethyl)-[1,3]dioxolan-4-ylmethylsulfanyl]-2-methyl-phenoxy}-acetic acid]"
8,0.122 µM,"CCC(O)(COc1ccc(C(F)(F)F)cc1)CSc1ccc(OCC(=O)O)c(C)c1 (centres unmarked) [Compound 28, {4-[2-Hydroxy-2-(4-trifluoromethyl-phenoxymethyl)butylsulfanyl]-2-methyl-phenoxy}-acetic acid]"
9,0.249 µM,C=C(COc1ccc(C(F)(F)F)cc1)COc1ccc(OCC(=O)O)c(C)c1 [Compound 29]

# Same assay, conditions: value printed in running text after characterisation data; multiple values = multiple measurements; read-out: PPARdleta EC50
row,SMILES,EC50
1,C=C(COc1ccc(C(F)(F)F)cc1)C[S+]([O-])c1ccc(OCC(=O)O)c(C)c1 (centres unmarked) [[2-methyl-4-[[2-[[4-(trifluoromethyl)phenoxy]methyl]-2-propenyl]sulfinyl]phenoxy]-acetic acid],> 3 µM
2,C=C(COc1ccc(C(F)(F)F)cn1)CSc1ccc(OCC(=O)O)c(C)c1 [[2-methyl-4-[[2-[[[5-(trifluoromethyl)-2-pyridinyl]oxy]methyl]-2-propenyl]thio]phenoxy]-acetic acid],> 3 µM
3,C=C(COc1ccc(C(F)(F)F)cc1)CSc1ccc(Cl)cc1OCC(=O)O [[5-chloro-2-[[2-[[4-(trifluoromethyl)phenoxy]methyl]-2-propenyl]thio]phenoxy]-acetic acid],> 3 µM
4,C=C(COc1ccc(C(C)=O)c(O)c1CCC)CSc1ccc(OCC(=O)O)c(C)c1 [{4-[2-(4-acetyl-3-hydroxy-2-propyl-phenoxymethyl)-allylsulfanyl]-2-methyl-phenoxy}-acetic acid],0.013 µM and 0.018 µM

# Tested on: differentiated THP-1 monocytes
# Experiment: not given
# Conditions: cited from earlier work
SMILES,ABCA1 mRNA expression,cholesterol efflux
Cc1cc(SCc2sc(-c3ccc(C(F)(F)F)cc3)nc2C)ccc1OCC(=O)O [GW501516],induced ABCA1 mRNA expression,enhanced cholesterol efflux

# Source: patent US8258177B2, “4-((phenoxyalkyl)thio)-phenoxyacetic acids and analogs” (Janssen Pharmaceutica, N.V., priority 2003, dated 2012)
